Experimental data as given in patent publication US20250382280A1, “PYRAZOLE DERIVATIVES FOR THE INHIBITION OF PHAGOCYTOSIS” (Canadian Blood Services, priority 2022, published 2025).
Read-outs that look alike come from different tables or passages of the source.

Key:
[1] = system: phagocytosis of anti-D-opsonized Rh(D+) red cells by monocytes; assay: monocyte monolayer assay (MMA), in vitro phagocytosis assay; assay type: cell-based, human; set-up: key to Phagocytic index (PI): number of phagocytosed RBCs per 100 monocytes; settings: for Phagocytic index (PI): PI = (# of phagocytic red blood cells)/(300 monocytes) * 100; for IC50 / EC50: dose-inhibitory response; for IC50: 0.5-100 μM, read-out: IC50 for inhibition of phagocytosis; for effect on IVIg dose-response curve (cooperation/synergy with IVIg): compound added at its IC50 concentration to each IVIg concentration
Protocol: The MMA to screen compounds for their ability to inhibit phagocytosis was performed as previously described (Purohit, M. K. et al., Bioorg. Med. Chem. Lett. 2013; 23:2324-7; and Purohit, M. K. et al., Bioorg. Med. Chem. 2014; 22:2739-52.). Briefly, Mononuclear cells (PBMCs) were layered onto chamber slides and monocytes purified by adherence after 1 hr at 37° C. with 5% CO2. Drugs were solubilized in 100% DMSO and then diluted in Roswell Park Memorial Institute (RPMI) to the final concentration of 5 μM, as previously reported (8,9). Corresponding dimethyl sulfoxide (DMSO) volumes in RPMI medium were used as a control. After one hour, indicator Rh-positive red cells opsonized with anti-RhD were added to the chamber slides and then further incubated for 2 hours before fixing and counting phagocytosed red blood cells (RBCs) using phase-contrast microscopy. As a positive control for inhibition, Intravenous immunoglobulin (IVIg) was used, known to inhibit phagocytosis due to blocking of FcγRs. The phagocytosis index (PI) was determined as the number of phagocytosed RBCs in 100 monocytes. The percent inhibition of phagocytosis was determined by comparing the PI in each treated sample to the PI in the untreated sample, which was determined by normalizing the PI concentration in each treated sample (phagocytosis of opsonized RBCs with vehicle only, representing 100 percent phagocytosis.
Concentrations included 100 μM, 50 μM, 25 μM, 10 μM, 5 μM, 2.5 μM, 1 μM, and 0.5 μM.
The 80 selected pyrazole core compounds were screened using a concentration of 5 μM in the in vitro phagocytosis assay, referred to as the monocyte monolayer assay (MMA). Compounds were compared to a standard intravenous immunoglobulin (IVIg) at a concentration of 1 mg/mL.

PBMC, HEPG2, and HEK-293 [2] = assay: LDH assay at higher concentrations (up to 250 μM); assay type: cell-based; settings: PBMCs, HEPG2, HEK293
Protocol: (§1) Cell lines (HepG2, liver-derived, HB-8065™; HEK293, kidney-derived cell line, CRL-1573™) were purchased from the ATCC. Both cell lines were cultured in Eagle's Minimum Essential Medium supplemented with 10% fetal calf serum.
(§2) To further determine the potential for toxicity of compounds KB-151 and KB-208, additional toxicity studies were done using higher concentrations, up to 250 μM of each compound, using LDH and MTT (FIGS. 4A-4D), and an apoptosis assay (Annexin V/PI) (FIGS. 5A-5C).

PBMC, HEPG2, and HEK-293 [3] = assay: MTT assay at higher concentrations (up to 250 μM); assay type: cell-based, human; settings: PBMCs, HEPG2, HEK293
Protocol: as §1, §2

PBMC, HEPG2, and HEK-293 [4] = assay: apoptosis assay (Annexin V/PI); assay type: cell-based, human; settings: 250 μM, 1 hour; PBMCs, HEPG2, HEK293
Protocol: PBMC, HEPG2, and HEK-293 cells were treated for 1 hour with the compound KB-151 or the compound KB-208 at a 250 μM concentration. 100 μM thimerosal was used as a positive control for viability (diluted in RPMI). Staining with Annexin V and PI was performed according to the manufacturer's procedure for the Annexin-V-FLUOS Staining Kit (Sigma) and samples were run through an SP6800 Spectral Cytometer.
as §2

ITP mice model = assay: anti-CD41 antibody ITP mouse model (platelet count); assay type: in vivo; settings: Balb/c, day 4 after two treatment doses on days 2 and 3, 100 μM s.c. twice a day, vs CD-41 group (*P≤0.05)
Protocol: An in vivo phagocytosis inhibition assay was performed with KB-151 in a mouse model, Balb/c animals (FIG. 6A and FIG. 6B). A dose of 100 μM of KB-151 was injected to 20.5 g mice at 500 μL based on the following calculations:
A dose-escalation anti-CD41 antibody ITP mouse model was used.
(§3) The efficacy of KB-151 and KB-208 at diminishing the platelet level was assessed in three ITP mice models: C57BL/6 (FIG. 7), Balb/c (FIGS. 8A-8B), and CD1 (FIG. 9). […] The toxicity was also assessed using the Balb/c model.

[5] = 60-day toxicity in Balb/c mice (blood biochemistry, histopathology); assay type: in vivo; settings: after 60 days of treatment
Protocol: as §3

[6] = system: attachment of antibody-opsonized RBCs to FcγRs on monocytes; assay: room temperature RBC rosette assay (binding of anti-D opsonized RBCs to monocytes); assay type: cell-based; settings: 100 μM
From the text: Fluorescent dye-labelled RBCs opsonized with anti-D were used to study the mechanism of phagocytosis inhibition using a room temperature assay to look for RBC rosettes (attachment of antibody-opsonized RBCs' to FcγRs) in the presence of monocytes. IVIg was used as the positive control and no treatment as the negative control. In the negative control, monocytes bound to the RBC and initiated phagocytosis (FIGS. 11A and 11E).

[7] = system: FcγRI (CD64), FcγRII (CD32), and FcγRIII (CD16); assay: FcγR expression on monocytes with monoclonal antibodies; assay type: cell-based; settings: monocytes untreated or treated
Protocol: Due to observing similar results as IVIG, the binding of KB-208 and KB-151 to FcγR was evaluated to determine the attachment between KB-208 or KB-151 and FcγR. Three monoclonal antibodies each specific for FcγRI (CD64), FcγRII (CD32), and FcγRIII (CD16) were used to test the resulting expression of FcγRI, FcγRII and FcγRIII.

HSP27 = assay: signal transduction study, phosphorylated HSP27 level; assay type: cell-based; settings: no RBC, un-opsonized RBC
From the text: (§4) The mechanism of action of KB-208 and KB-151 was investigated further to evaluate the effects on signal transduction. Many kinases were studied including Akt1/2/3 (T308), Akt1/2/3 (S473), CREB, EGF R1 eNOS, ERK1/2, Chk-2, c-Jun, Fgr, GSK-3a/p, GSK-3p, HSP27, p53 (S15), p53 (S46), p53 (S392), JNK 1/2/3, Lck, Lyn, MSK1/2, p70 S6 kinase (T389), p70 S6 kinase (T421/S424), PRAS40, p38a, PDGF RP, PLC-γ1, Src, PYK2, RSK1/2, RSK1/2/3, STAT2, STAT5a/b, WNK1, Yes, STAT1, STAT3 (Y705), STAT3 (S727), β-catenin, STAT6, and HSP60. […] It was then confirmed that KB-208 and KB-151 activate PP2A (in other words they increase its phosphatase activity) (FIG. 14). PP2A is a serine phosphatase that dephosphorylates HSP27. Deregulation of HSP27 also occurs in diseases other than immune cytopenias for example prostate cancer, colorectal cancer, and breast cancer.

PP2A = PP2A phosphatase activity; assay type: biochemical
From the text: as §4

[8] = Homo sapiens, Monocyte, 5 μM compound, screening of the 80 compounds, read-out: Average inhibition (% ± standard deviation)
[9] = Homo sapiens, Monocyte, 5 μM, anti-D-opsonized Rh(D+) red cells, read-out: Inhibition percentage

Structure (SMILES): CCOC(=O)c1nn(-c2ccccc2)c(C#N)c1NC(=O)c1nn(CC)cc1Br [KB-151]
- Phagocytic index (PI) ([1]; 5 μM): 17
- IC50 ([1]; Homo sapiens, Monocyte): 2.71 ± 0.786 µM
- inhibition at 5 µM [1, 8]: 80 ± 3.68%
- inhibition at 5 µM [1, 9]: 80%
- EC50 ([1]; Homo sapiens, Monocyte, unit inferred): 8 ± 4 µM
- effect on IVIg dose-response curve (cooperation/synergy with IVIg) [1]: no effect
- IC50 [1]: 3 µM
- toxicity by LDH (PBMC, HEPG2, and HEK-293 [2]): low to no toxicity
- toxicity by MTT (PBMC, HEPG2, and HEK-293 [3]): low to no toxicity
- toxicity by apoptosis assay (Annexin V/PI) (PBMC, HEPG2, and HEK-293 [4]): low to no toxicity
- platelet (PLT) count (ITP mice model): significant increase
- histopathology of liver, heart, spleen, lymph nodes, and kidney [5]: showed abnormalities nor any toxicity
- toxicity (blood biochemistry) [5]: Minimal toxicity
- binding of monocytes to anti-D opsonized RBCs and phagocytosis [6]: inhibit the binding and inhibit phagocytosis similarly to IVIg
- binding to Fcγ receptors (FcγRI, FcγRII, FcγRIII expression on monocytes) [7]: independent of binding the three tested Fcγ receptors
- effect on HSP27 phosphorylation (HSP27): dephosphorylate HSP27
- PP2A phosphatase activity (PP2A): activate PP2A

Structure (SMILES): COc1ccccc1-c1cc(C(=O)Nc2c(C)n(C)n(-c3ccccc3)c2=O)no1 [KB-200]
- inhibition at 5 µM [1, 8]: 31 ± 1.84%

Structure (SMILES): CN(C)CCNC(=O)c1cc(-c2ccc(Cl)cc2)nn1-c1ccccc1 [KB-201]
- inhibition at 5 µM [1, 8]: 0%

Structure (SMILES): CNC(=O)c1cc(-c2cccs2)[nH]n1 [KB-202]
- inhibition at 5 µM [1, 8]: 33 ± 2.31%

Structure (SMILES): O=C(NCc1ccncc1)c1cnn(-c2ccccc2F)c1-n1cccc1 [KB-203]
- inhibition at 5 µM [1, 8]: 27 ± 2.72%

Structure (SMILES): O=C(Nc1ccncc1)c1cc(C2CC2)nn1-c1ccccc1 [KB-204]
- inhibition at 5 µM [1, 8]: 36 ± 3.6%

Structure (SMILES): CC(CCc1ccccc1)NC(=O)c1cnn(C)c1-n1cccc1 (stereo not shown) [KB-205]
- Phagocytic index (PI) ([1]; 5 μM): 19
- inhibition at 5 µM [1, 8]: 47 ± 0.98%
- inhibition at 5 µM [1, 9]: 47%

Structure (SMILES): CC(C)c1cc(C(=O)Nc2nnc(C3CCCO3)s2)n(-c2ccccc2)n1 (stereo not shown) [KB-206]
- Phagocytic index (PI) ([1]; 5 μM): 18
- inhibition at 5 µM [1, 8]: 50 ± 5.46%
- inhibition at 5 µM [1, 9]: 50%

Structure (SMILES): COCc1nnc(NC(=O)c2cnn(C)c2-n2cccc2)s1 [KB-207]
- inhibition at 5 µM [1, 8]: 14 ± 1.86%

Structure (SMILES): COC(=O)CC1CCN(C(=O)c2cc(-c3cccs3)nn2-c2ccccc2)CC1 [KB-208]
- Phagocytic index (PI) ([1]; 5 μM): 7
- IC50 ([1]; Homo sapiens, Monocyte): 4.21 ± 1.24 µM
- inhibition at 5 µM [1, 8]: 81 ± 3.43%
- inhibition at 5 µM [1, 9]: 81%
- EC50 ([1]; Homo sapiens, Monocyte): 5 ± 0.2 µM
- effect on IVIg dose-response curve (cooperation/synergy with IVIg) [1]: no effect
- IC50 [1]: 4 µM
- toxicity by LDH (PBMC, HEPG2, and HEK-293 [2]): low to no toxicity
- toxicity by MTT (PBMC, HEPG2, and HEK-293 [3]): low to no toxicity
- toxicity by apoptosis assay (Annexin V/PI) (PBMC, HEPG2, and HEK-293 [4]): low to no toxicity
- binding of monocytes to anti-D opsonized RBCs and phagocytosis [6]: inhibit the binding and inhibit phagocytosis similarly to IVIg
- binding to Fcγ receptors (FcγRI, FcγRII, FcγRIII expression on monocytes) [7]: independent of binding the three tested Fcγ receptors
- effect on HSP27 phosphorylation (HSP27): dephosphorylate HSP27
- PP2A phosphatase activity (PP2A): activate PP2A

Structure (SMILES): Nc1c(C(=O)O)cnn1-c1ccc(F)cc1F [KB-209]
- Phagocytic index (PI) ([1]; 5 μM): 18
- inhibition at 5 µM [1, 8]: 50 ± 1.02%
- inhibition at 5 µM [1, 9]: 50%

Structure (SMILES): O=C(Nc1nccs1)c1cnn(-c2ccccc2)c1-n1cccc1 [KB-210]
- Phagocytic index (PI) ([1]; 5 μM): 11
- IC50 ([1]; Homo sapiens, Monocyte): 22.1 µM
- inhibition at 5 µM [1, 8]: 69 ± 5.32%
- inhibition at 5 µM [1, 9]: 69%
- EC50 ([1]; Homo sapiens, Monocyte): > 10 µM

Structure (SMILES): FC(F)(F)c1cc(-c2cccs2)nc(-n2nc(C(F)(F)F)c3c2CCC3)n1 [KB-211]
- inhibition at 5 µM [1, 8]: 33 ± 2.31%

Structure (SMILES): CSc1cccc(NC(=O)c2cnn(C)c2-n2cccc2)c1 [KB-212]
- Phagocytic index (PI) ([1]; 5 μM): 19
- inhibition at 5 µM [1, 8]: 47 ± 9.67%
- inhibition at 5 µM [1, 9]: 47%

Structure (SMILES): COc1ccc(-c2cc(C(=O)NCCc3c[nH]c4ccccc34)[nH]n2)cc1 [KB-213]
- Phagocytic index (PI) ([1]; 5 μM): 13
- inhibition at 5 µM [1, 8]: 64 ± 8.74%
- inhibition at 5 µM [1, 9]: 64%
